Target: T1, Tyrosine-protein phosphatase non-receptor type 1 (Homo sapiens, UniProt P18031)
T1 sequence (P18031 whole entry): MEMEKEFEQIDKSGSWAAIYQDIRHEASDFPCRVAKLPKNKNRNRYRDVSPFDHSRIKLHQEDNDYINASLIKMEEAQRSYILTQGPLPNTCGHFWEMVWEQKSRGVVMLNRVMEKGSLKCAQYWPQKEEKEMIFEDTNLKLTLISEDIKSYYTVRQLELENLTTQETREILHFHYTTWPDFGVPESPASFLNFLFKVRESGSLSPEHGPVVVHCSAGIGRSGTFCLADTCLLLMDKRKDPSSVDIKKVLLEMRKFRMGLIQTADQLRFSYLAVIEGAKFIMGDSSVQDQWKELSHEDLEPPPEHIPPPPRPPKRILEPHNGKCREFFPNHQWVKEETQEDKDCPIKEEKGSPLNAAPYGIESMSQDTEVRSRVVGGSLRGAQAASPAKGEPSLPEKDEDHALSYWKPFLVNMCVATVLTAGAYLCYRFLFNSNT
Experiment: Inhibition of human PTP1B

COC(=O)/C1=C/c2c([nH]c3ccccc23)/C(C(=O)OC)=C\c2c1[nH]c1ccccc21 [CAULERPIN]
IC50: 3.77 µM
